Data taken from patent US20080063668A1, “Nitroimidazole and terconazole composition and method” (priority 2006, published 2008).

What was measured:
[1] = Solubilization of terconazole in water with acid (crystal observation); assay type: physicochemical
Description: Weighed amounts of terconazole were added to separate containers including an acid in water, applying heat, if necessary, to dissolve the terconazole. The amount of acid was selected to be about equimolar with the amount of terconazole added. After the terconazole was dissolved, each solution was cooled to about 4° C. to force crystallization of the terconazole. If crystals were not observed upon cooling, seed crystals of terconazole were then added and the solutions were again cooled to about 4° C. for about 72 hours. After allowing for crystal formation in all solutions, the solutions were allowed to warm to room temperature (about 20° C.).
Table 2 includes dissolution data for a number of compositions comprising varying amounts of terconazole and various acids. The data in Table 2 clearly indicate that solutions having a terconazole concentration of at least about 3 percent by weight and free from terconazole crystals at 20° C. were obtained utilizing tartaric acid and malic acid.

[2] = test system: Mobiluncus curtisii var. curtisii ATCC 35241; experiment: Inhibition of bacteria growth, drug dilution tubes, anaerobic; assay type: cell-based; parameters: key: (+) for growth; (−) for no growth; (±) for suboptimal growth after an initial observation of growth
Description: Serial dilutions of tinidazole and terconazole were prepared by adding measured amounts of each substance to water (both individually and in combination). Seven bacterial organisms that are common pathogens in bacterial vaginosis were grown anaerobically in the medium as listed in Table 4 under a N2/H2/CO2 (85:5:10) head space atmosphere. [table] These cultures were diluted to a 0.5 McFarland standard prior to inoculation of drug dilution tubes. One (1) mL of the 0.5 McFarland preparation was inoculated to an anaerobically prepared test tube containing 0.8 mL of Difco anaerobic medium (DAMM) and 0.2 mL of appropriate diluted antimicrobial or antimicrobial combination for a total of 2 mL. The inoculated tubes were then incubated at 37° C. and monitored daily for growth. Growth was scored with a (+) for growth, (−) for no growth, and (±) for suboptimal growth after an initial observation of growth. Tinidazole is abbreviated as TNZ and terconazole is abbreviated as TER in Tables 5 through 11.

[3] = Solubilization of tinidazole in water with acid (crystal observation); assay type: physicochemical; conditions: 20° C., at least 14 days
Description: Weighed amounts of tinidazole were added to separate containers including an acid in water, applying heat, if necessary, to dissolve the tinidazole. The amount of acid was selected to be about equimolar with the amount of tinidazole added. After the tinidazole was dissolved, each solution was cooled to about 2° C. to force crystallization of some of the tinidazole. If crystals were not observed upon cooling, seed crystals of tinidazole were added. After crystal formation was observed, the solutions were allowed to warm to room temperature (about 20° C.). […] The absence of crystals after 14 days indicates effective dissolution of tinidazole. Table 1 includes dissolution data for a number of compositions comprising varying amounts of tinidazole and various acids. The data in Table 1 clearly indicate that solutions having a tinidazole concentration of at least about 0.5 percent by weight and free from tinidazole crystals at 20° C. were obtained utilizing citric acid, hydrochloric acid, acetic acid, tartaric acid, and malic acid. Tinidazole concentrations as high as about 0.55 percent by weight were obtained utilizing tartaric acid and citric acid.

[4] = Combined solubilization of tinidazole and terconazole in water with citric acid; assay type: physicochemical; conditions: 20° C., terconazole about 0.8 percent by weight
Description: Weighed amounts of tinidazole and terconazole were added to separate containers including citric acid in water, applying heat, if necessary, to dissolve the tinidazole and terconazole. The amount of citric acid was selected to be about equimolar with the molar amount of tinidazole and terconazole added. After the tinidazole and terconazole was dissolved, each solution was cooled to about 4° C. to force crystallization of the tinidazole and terconazole. If crystals were not observed upon cooling, seed crystals of tinidazole were added and the solutions were again cooled to about 4° C. […] The absence of crystals after 14 days indicates effective dissolution of tinidazole and terconazole. Table 3 includes dissolution data for a number of compositions comprising varying amounts of tinidazole, terconazole and citric acid. The data in Table 3 clearly indicate that solutions having a tinidazole concentration of at least about 0.6 percent by weight and a terconazole concentration of about 0.8 percent by weight and free from crystals at 20° C. were obtained utilizing citric acid.

With `CC(C)N1CCN(c2ccc(OCC3COC(Cn4cncn4)(c4ccc(Cl)cc4Cl)O3)cc2)CC1` (stereo not drawn) [TER, cis-1-[p[[2-(2,4-dichlorophenyl)-2-(1 H-1,2,4-triazol-1-ylmethyl)-1,3-dioxolan-4-yl]methoxy]phenyl]-4-isopropylpiperazine] the “terconazole concentration of solutions free from terconazole crystals” value ([1]; 20° C., about 14 days, tartaric acid and malic acid) was “at least 3 percent by weight”, the terconazole solubilized ([1]; citric acid, separate study) was 2.4 percent by weight and the growth ([2]; TER 3.1 μg/ml, DAY 1) was “(+)”. For the same molecule, the growth ([2]; TER 3.1 μg/ml, DAY 2) was “(+)”, the growth ([2]; TER 3.1 μg/ml, DAY 3) was “(+)” and the growth ([2]; TER 3.1 μg/ml, DAY 4) was “(+)”. For the same molecule, the growth ([2]; TER 3.1 μg/ml, DAY 5) was “(+)”, the growth ([2]; TER 6.2 μg/ml, DAY 1) was “(+)” and the growth ([2]; TER 6.2 μg/ml, DAY 2) was “(+)”. For the same molecule, the growth ([2]; TER 6.2 μg/ml, DAY 3) was “(+)”, the growth ([2]; TER 6.2 μg/ml, DAY 4) was “(+)” and the growth ([2]; TER 6.2 μg/ml, DAY 5) was “(+)”. For the same molecule, the growth ([2]; TER 12.5 μg/ml, DAY 1) was “(+)”, the growth ([2]; TER 12.5 μg/ml, DAY 2) was “(+)” and the growth ([2]; TER 12.5 μg/ml, DAY 3) was “(+)”. For the same molecule, the growth ([2]; TER 12.5 μg/ml, DAY 4) was “(+)”, the growth ([2]; TER 12.5 μg/ml, DAY 5) was “(+)” and the growth ([2]; TER 25 μg/ml, DAY 1) was “(+)”. The growth ([2]; TER 25 μg/ml, DAY 2) was “(+)”, the growth ([2]; TER 25 μg/ml, DAY 3) was “(+)” and the growth ([2]; TER 25 μg/ml, DAY 4) was “(+)”. For the same molecule, the growth ([2]; TER 25 μg/ml, DAY 5) was “(+)”, the growth ([2]; TER 50 μg/ml, DAY 1) was “(+)” and the growth ([2]; TER 50 μg/ml, DAY 2) was “(+)”. The growth ([2]; TER 50 μg/ml, DAY 3) was “(+)”, the growth ([2]; TER 50 μg/ml, DAY 4) was “(+)” and the growth ([2]; TER 50 μg/ml, DAY 5) was “(+)”. The growth ([2]; TER 100 μg/ml, DAY 1) was “(+)”, the growth ([2]; TER 100 μg/ml, DAY 2) was “(+)” and the growth ([2]; TER 100 μg/ml, DAY 3) was “(+)”. For the same molecule, the growth ([2]; TER 100 μg/ml, DAY 4) was “(+)”, the growth ([2]; TER 100 μg/ml, DAY 5) was “(+)” and the growth ([2]; TER 200 μg/ml, DAY 1) was “(−)”. The growth ([2]; TER 200 μg/ml, DAY 2) was “(+)”, the growth ([2]; TER 200 μg/ml, DAY 5) was “(+)” and the growth ([2]; TER 400 μg/ml, DAY 1) was “(−)”. For the same molecule, the growth ([2]; TER 400 μg/ml, DAY 2) was “(−)”, the growth ([2]; TER 400 μg/ml, DAY 3) was “(−)” and the growth ([2]; TER 400 μg/ml, DAY 4) was “(−)”. The growth ([2]; TER 400 μg/ml, DAY 5) was “(+)”, the growth ([2]; TER 800 μg/ml, DAY 1) was “(−)” and the growth ([2]; TER 800 μg/ml, DAY 2) was “(−)”. For the same molecule, the growth ([2]; TER 800 μg/ml, DAY 3) was “(−)”, the growth ([2]; TER 800 μg/ml, DAY 4) was “(−)” and the growth ([2]; TER 800 μg/ml, DAY 5) was “(+)”.
For `CCS(=O)(=O)CCn1c([N+](=O)[O-])cnc1C` [TNZ, 1-[2-(ethylsulfonyl)ethyl]-2-methyl-5-nitroimidazole], the “tinidazole concentration of solutions free from tinidazole crystals” value ([3]; citric acid, hydrochloric acid, acetic acid, tartaric acid, and malic acid, about equimolar) was “at least 0.5 percent by weight”, the “tinidazole concentration of solutions free from tinidazole crystals” value ([3]; tartaric acid and citric acid) was “about 0.55 percent by weight” and the “tinidazole concentration of solutions free from crystals” value [4] was “at least 0.6 percent by weight”. For the same molecule, the growth ([2]; TNZ 2 μg/ml, DAY 1) was “(+)”, the growth ([2]; TNZ 2 μg/ml, DAY 2) was “(+)” and the growth ([2]; TNZ 2 μg/ml, DAY 3) was “(+)”. The growth ([2]; TNZ 2 μg/ml, DAY 4) was “(+)”, the growth ([2]; TNZ 2 μg/ml, DAY 5) was “(+)” and the growth ([2]; TNZ 3.9 μg/ml, DAY 1) was “(+)”. For the same molecule, the growth ([2]; TNZ 3.9 μg/ml, DAY 2) was “(+)”, the growth ([2]; TNZ 3.9 μg/ml, DAY 3) was “(+)” and the growth ([2]; TNZ 3.9 μg/ml, DAY 4) was “(+)”. For the same molecule, the growth ([2]; TNZ 3.9 μg/ml, DAY 5) was “(+)”, the growth ([2]; TNZ 7.8 μg/ml, DAY 1) was “(+)” and the growth ([2]; TNZ 7.8 μg/ml, DAY 2) was “(+)”. The growth ([2]; TNZ 7.8 μg/ml, DAY 3) was “(+)”, the growth ([2]; TNZ 7.8 μg/ml, DAY 4) was “(+)” and the growth ([2]; TNZ 7.8 μg/ml, DAY 5) was “(+)”. The growth ([2]; TNZ 15.6 μg/ml, DAY 1) was “(+)”, the growth ([2]; TNZ 15.6 μg/ml, DAY 2) was “(+)” and the growth ([2]; TNZ 15.6 μg/ml, DAY 3) was “(+)”. For the same molecule, the growth ([2]; TNZ 15.6 μg/ml, DAY 4) was “(+)”, the growth ([2]; TNZ 15.6 μg/ml, DAY 5) was “(+)” and the growth ([2]; TNZ 31.3 μg/ml, DAY 1) was “(+)”. For the same molecule, the growth ([2]; TNZ 31.3 μg/ml, DAY 2) was “(+)”, the growth ([2]; TNZ 31.3 μg/ml, DAY 3) was “(+)” and the growth ([2]; TNZ 31.3 μg/ml, DAY 4) was “(+)”. For the same molecule, the growth ([2]; TNZ 31.3 μg/ml, DAY 5) was “(+)”, the growth ([2]; TNZ 62.5 μg/ml, DAY 1) was “(+)” and the growth ([2]; TNZ 62.5 μg/ml, DAY 2) was “(+)”. For the same molecule, the growth ([2]; TNZ 62.5 μg/ml, DAY 3) was “(+)”, the growth ([2]; TNZ 62.5 μg/ml, DAY 4) was “(+)” and the growth ([2]; TNZ 62.5 μg/ml, DAY 5) was “(+)”. For the same molecule, the growth ([2]; TNZ 125 μg/ml, DAY 1) was “(+)”, the growth ([2]; TNZ 125 μg/ml, DAY 2) was “(+)” and the growth ([2]; TNZ 125 μg/ml, DAY 3) was “(+)”. The growth ([2]; TNZ 125 μg/ml, DAY 4) was “(+)”, the growth ([2]; TNZ 125 μg/ml, DAY 5) was “(+)” and the growth ([2]; TNZ 250 μg/ml, DAY 1) was “(−)”. For the same molecule, the growth ([2]; TNZ 250 μg/ml, DAY 2) was “(+)”, the growth ([2]; TNZ 250 μg/ml, DAY 3) was “(+)” and the growth ([2]; TNZ 250 μg/ml, DAY 4) was “(+)”. The growth ([2]; TNZ 250 μg/ml, DAY 5) was “(+)”, the growth ([2]; TNZ 500 μg/ml, DAY 1) was “(−)” and the growth ([2]; TNZ 500 μg/ml, DAY 2) was “(−)”. For the same molecule, the growth ([2]; TNZ 500 μg/ml, DAY 3) was “(−)”, the growth ([2]; TNZ 500 μg/ml, DAY 4) was “(−)” and the growth ([2]; TNZ 500 μg/ml, DAY 5) was “(+)”.
